Experimental data as given in publication PMC4004102 (Molecular cell, 2014).

Molecular target: AgrC-I (Staphylococcus aureus, UniProt Q309Y8)
Assay: reverse autokinase kinetics, Michaelis-Menten
Assay type: biochemical
Details: reverse reaction from pre-phosphorylated AgrC-I discs; without AIP

In the case of `Nc1ncnc2c1ncn2[C@@H]1O[C@H](COP(=O)(O)OP(=O)(O)O)[C@@H](O)[C@H]1O` [ADP], the Km is reported as “the Km for ADP was lower while the kmax was higher than the forward reaction”.
